From PubChem BioAssay (NCI)
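These data come from cells grown in 96-well plates and exposed to compound for 48 hours at five concentrations. GI50: concentration for 50% inhibition of growth. TGI denotes the concentration required for complete inhibition of growth.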

What was measured:
Assay in all cases: inhibition of tumour cell growth, NCI panel, 48 h
SNB-75 CNS = system: SNB-75 CNS
RXF 393 renal = system: RXF 393 renal
T-47D breast = system: T-47D breast
HCC-2998 colon = system: HCC-2998 colon
U251 CNS = system: U251 CNS
EKVX NSCLC = system: EKVX NSCLC
MCF7 breast = system: MCF7 breast
OVCAR-4 ovarian = system: OVCAR-4 ovarian
SF-295 CNS = system: SF-295 CNS
UO-31 renal = system: UO-31 renal
HOP-92 NSCLC = system: HOP-92 NSCLC
LOX IMVI melanoma = system: LOX IMVI melanoma
MDA-MB-231 breast = system: MDA-MB-231 breast
MDA-MB-435 = system: MDA-MB-435
A498 renal = system: A498 renal
OVCAR-3 ovarian = system: OVCAR-3 ovarian
NCI/ADR-RES ovarian = system: NCI/ADR-RES ovarian
HS 578T breast = system: HS 578T breast
MOLT-4 leukemia = system: MOLT-4 leukemia
A549 NSCLC = system: A549 NSCLC
BT-549 breast = system: BT-549 breast
PC-3 prostate = system: PC-3 prostate
SK-MEL-28 melanoma = system: SK-MEL-28 melanoma
SK-MEL-5 melanoma = system: SK-MEL-5 melanoma
UACC-257 melanoma = system: UACC-257 melanoma
SNB-19 CNS = system: SNB-19 CNS
SR leukemia = system: SR leukemia
DU-145 prostate = system: DU-145 prostate
CCRF-CEM leukemia = system: CCRF-CEM leukemia
SN12C renal = system: SN12C renal
UACC-62 melanoma = system: UACC-62 melanoma
OVCAR-8 ovarian = system: OVCAR-8 ovarian
NCI-H226 lung = system: NCI-H226 lung
SF-268 CNS = system: SF-268 CNS
IGROV1 ovarian = system: IGROV1 ovarian
M14 melanoma = system: M14 melanoma
786-0 renal = system: 786-0 renal
HL-60(TB) leukemia = system: HL-60(TB) leukemia
COLO 205 colon = system: COLO 205 colon
HOP-62 NSCLC = system: HOP-62 NSCLC
OVCAR-5 ovarian = system: OVCAR-5 ovarian
KM12 colon = system: KM12 colon
HCT-15 colon = system: HCT-15 colon
SF-539 CNS = system: SF-539 CNS
SK-MEL-2 melanoma = system: SK-MEL-2 melanoma
HT29 colon = system: HT29 colon
MALME-3M melanoma = system: MALME-3M melanoma
K-562 leukemia = system: K-562 leukemia
ACHN renal = system: ACHN renal
TK-10 renal = system: TK-10 renal
SK-OV-3 ovarian = system: SK-OV-3 ovarian
SW-620 colon = system: SW-620 colon
NCI-H460 lung = system: NCI-H460 lung
NCI-H522 lung = system: NCI-H522 lung
NCI-H23 lung = system: NCI-H23 lung
HCT-116 colon = system: HCT-116 colon
CAKI-1 renal = system: CAKI-1 renal

COc1cc2c(cc1F)C(c1ccccc1Cl)=Nc1c(n[nH]c1C)N2
GI50 (SNB-75 CNS): 0.189 µM
TGI (SNB-75 CNS): 0.724 µM
GI50 (RXF 393 renal): 0.242 µM
TGI (RXF 393 renal): 1.46 µM
GI50 (T-47D breast): 1.59 µM
TGI (T-47D breast): 26.4 µM
GI50 (HCC-2998 colon): 11.3 µM
TGI (HCC-2998 colon): 24.1 µM
GI50 (U251 CNS): 0.583 µM
TGI (U251 CNS): 18.3 µM
GI50 (EKVX NSCLC): 2.84 µM
TGI (EKVX NSCLC): 18.4 µM
GI50 (MCF7 breast): 1.03 µM
TGI (MCF7 breast): 20.7 µM
GI50 (OVCAR-4 ovarian): 5.63 µM
TGI (OVCAR-4 ovarian): 28.6 µM
GI50 (SF-295 CNS): 0.477 µM
TGI (SF-295 CNS): 15.7 µM
GI50 (UO-31 renal): 0.84 µM
TGI (UO-31 renal): 6.25 µM
GI50 (HOP-92 NSCLC): 1.34 µM
TGI (HOP-92 NSCLC): 13.5 µM
GI50 (LOX IMVI melanoma): 0.94 µM
TGI (LOX IMVI melanoma): 13.1 µM
GI50 (MDA-MB-231 breast): 2.12 µM
TGI (MDA-MB-231 breast): 16.9 µM
GI50 (MDA-MB-435): 0.172 µM
TGI (MDA-MB-435): 19.1 µM
GI50 (A498 renal): 2.06 µM
TGI (A498 renal): 9.97 µM
GI50 (OVCAR-3 ovarian): 0.597 µM
TGI (OVCAR-3 ovarian): 21.6 µM
GI50 (NCI/ADR-RES ovarian): 0.465 µM
TGI (NCI/ADR-RES ovarian): 29.5 µM
GI50 (HS 578T breast): 0.214 µM
TGI (HS 578T breast): 0.838 µM
GI50 (MOLT-4 leukemia): 5 µM
TGI (MOLT-4 leukemia): 38.6 µM
GI50 (A549 NSCLC): 0.938 µM
TGI (A549 NSCLC): 23.9 µM
GI50 (BT-549 breast): 2.7 µM
TGI (BT-549 breast): 20.5 µM
GI50 (PC-3 prostate): 12.3 µM
TGI (PC-3 prostate): > 50.1 µM
GI50 (SK-MEL-28 melanoma): 5.66 µM
TGI (SK-MEL-28 melanoma): 20.4 µM
GI50 (SK-MEL-5 melanoma): 0.328 µM
TGI (SK-MEL-5 melanoma): 6.51 µM
GI50 (UACC-257 melanoma): 11.1 µM
TGI (UACC-257 melanoma): 25.4 µM
GI50 (SNB-19 CNS): 8.69 µM
TGI (SNB-19 CNS): 22.3 µM
GI50 (SR leukemia): 0.417 µM
TGI (SR leukemia): 32.8 µM
GI50 (DU-145 prostate): 3.46 µM
TGI (DU-145 prostate): 21 µM
GI50 (CCRF-CEM leukemia): 0.982 µM
TGI (CCRF-CEM leukemia): > 100 µM
GI50 (SN12C renal): 1.38 µM
TGI (SN12C renal): 18.3 µM
GI50 (UACC-62 melanoma): 0.995 µM
TGI (UACC-62 melanoma): 17.2 µM
GI50 (OVCAR-8 ovarian): 6.29 µM
TGI (OVCAR-8 ovarian): 30.4 µM
GI50 (NCI-H226 lung): 0.532 µM
TGI (NCI-H226 lung): 16.3 µM
GI50 (SF-268 CNS): 1.14 µM
TGI (SF-268 CNS): 11.7 µM
GI50 (IGROV1 ovarian): 1.54 µM
TGI (IGROV1 ovarian): 18 µM
GI50 (M14 melanoma): 0.911 µM
TGI (M14 melanoma): 22 µM
GI50 (786-0 renal): 1.82 µM
TGI (786-0 renal): 19.3 µM
GI50 (HL-60(TB) leukemia): 0.838 µM
TGI (HL-60(TB) leukemia): 20.8 µM
GI50 (COLO 205 colon): 0.416 µM
TGI (COLO 205 colon): 3.79 µM
GI50 (HOP-62 NSCLC): 1.31 µM
TGI (HOP-62 NSCLC): 19.1 µM
GI50 (OVCAR-5 ovarian): 6.76 µM
TGI (OVCAR-5 ovarian): 22.8 µM
GI50 (KM12 colon): 0.502 µM
TGI (KM12 colon): 15.5 µM
GI50 (HCT-15 colon): 0.705 µM
TGI (HCT-15 colon): 19.7 µM
GI50 (SF-539 CNS): 0.389 µM
TGI (SF-539 CNS): 2.39 µM
GI50 (SK-MEL-2 melanoma): 1.08 µM
TGI (SK-MEL-2 melanoma): 17.3 µM
GI50 (HT29 colon): 0.587 µM
TGI (HT29 colon): 8.83 µM
GI50 (MALME-3M melanoma): 18 µM
TGI (MALME-3M melanoma): 32.7 µM
GI50 (K-562 leukemia): 0.493 µM
TGI (K-562 leukemia): > 50.4 µM
GI50 (ACHN renal): 1.45 µM
TGI (ACHN renal): 10.2 µM
GI50 (TK-10 renal): 4.02 µM
TGI (TK-10 renal): 18.3 µM
GI50 (SK-OV-3 ovarian): 1.59 µM
TGI (SK-OV-3 ovarian): 33.1 µM
GI50 (SW-620 colon): 0.486 µM
TGI (SW-620 colon): 20 µM
GI50 (NCI-H460 lung): 0.498 µM
TGI (NCI-H460 lung): 26.5 µM
GI50 (NCI-H522 lung): 0.415 µM
TGI (NCI-H522 lung): 20.9 µM
GI50 (NCI-H23 lung): 3.79 µM
TGI (NCI-H23 lung): 21 µM
GI50 (HCT-116 colon): 0.639 µM
TGI (HCT-116 colon): 18.4 µM
GI50 (CAKI-1 renal): 0.609 µM
TGI (CAKI-1 renal): 14.7 µM
